In data set [1] the target is T1, Peroxisome proliferator-activated receptor alpha (Mus musculus, UniProt P23204).
T1 sequence (P23204 whole entry): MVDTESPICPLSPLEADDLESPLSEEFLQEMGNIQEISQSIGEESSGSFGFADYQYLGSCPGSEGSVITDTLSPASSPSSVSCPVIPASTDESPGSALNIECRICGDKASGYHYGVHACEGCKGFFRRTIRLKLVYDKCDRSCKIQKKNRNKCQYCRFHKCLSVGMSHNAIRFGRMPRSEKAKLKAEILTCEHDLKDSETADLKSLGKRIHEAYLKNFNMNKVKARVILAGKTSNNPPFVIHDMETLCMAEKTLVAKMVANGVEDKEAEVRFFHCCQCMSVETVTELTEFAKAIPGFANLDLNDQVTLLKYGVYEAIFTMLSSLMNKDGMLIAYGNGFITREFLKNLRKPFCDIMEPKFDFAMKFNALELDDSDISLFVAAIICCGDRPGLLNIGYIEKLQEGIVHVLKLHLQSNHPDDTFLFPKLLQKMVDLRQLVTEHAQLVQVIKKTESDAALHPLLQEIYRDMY
In words: Agonist activity against PPAR alpha. Format: functional.

Data set [2] has as its target T2, Peroxisome proliferator-activated receptor gamma (Mus musculus, UniProt P37238).
T2 sequence (P37238 whole entry): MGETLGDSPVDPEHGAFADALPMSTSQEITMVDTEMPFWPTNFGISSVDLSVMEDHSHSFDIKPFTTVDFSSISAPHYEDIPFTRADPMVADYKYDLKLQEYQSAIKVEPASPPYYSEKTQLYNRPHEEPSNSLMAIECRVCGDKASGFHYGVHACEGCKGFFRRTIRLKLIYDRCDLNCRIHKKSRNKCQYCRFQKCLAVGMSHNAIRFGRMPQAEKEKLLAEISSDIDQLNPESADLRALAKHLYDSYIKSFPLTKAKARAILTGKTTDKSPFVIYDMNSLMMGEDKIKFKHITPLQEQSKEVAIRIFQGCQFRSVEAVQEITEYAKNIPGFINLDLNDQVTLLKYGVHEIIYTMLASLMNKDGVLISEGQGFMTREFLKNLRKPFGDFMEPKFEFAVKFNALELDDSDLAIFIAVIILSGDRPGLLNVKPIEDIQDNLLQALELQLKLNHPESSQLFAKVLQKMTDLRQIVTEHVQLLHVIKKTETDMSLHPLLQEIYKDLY
Put plainly: Agonist activity against PPAR gamma. The class given is functional.

Data set [3] has as its target T3, Peroxisome proliferator-activated receptor delta (Mus musculus, UniProt P35396).
T3 sequence (P35396 whole entry): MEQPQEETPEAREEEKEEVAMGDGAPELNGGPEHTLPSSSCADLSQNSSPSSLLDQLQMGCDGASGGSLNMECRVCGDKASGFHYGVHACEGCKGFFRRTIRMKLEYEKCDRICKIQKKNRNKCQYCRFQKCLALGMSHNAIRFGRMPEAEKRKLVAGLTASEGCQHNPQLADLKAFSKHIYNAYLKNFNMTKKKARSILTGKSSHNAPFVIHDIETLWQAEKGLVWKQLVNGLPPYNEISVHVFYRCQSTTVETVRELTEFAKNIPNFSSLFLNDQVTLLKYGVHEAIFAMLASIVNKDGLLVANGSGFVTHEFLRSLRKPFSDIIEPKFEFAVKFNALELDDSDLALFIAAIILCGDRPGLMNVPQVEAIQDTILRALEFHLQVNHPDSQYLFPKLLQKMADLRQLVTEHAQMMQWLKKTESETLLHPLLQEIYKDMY
In words: Agonist activity against PPAR delta. The class given is functional.

The target in data set [4] is T4, Peroxisome proliferator-activated receptor gamma (Homo sapiens, UniProt P37231).
T4 sequence (P37231 whole entry): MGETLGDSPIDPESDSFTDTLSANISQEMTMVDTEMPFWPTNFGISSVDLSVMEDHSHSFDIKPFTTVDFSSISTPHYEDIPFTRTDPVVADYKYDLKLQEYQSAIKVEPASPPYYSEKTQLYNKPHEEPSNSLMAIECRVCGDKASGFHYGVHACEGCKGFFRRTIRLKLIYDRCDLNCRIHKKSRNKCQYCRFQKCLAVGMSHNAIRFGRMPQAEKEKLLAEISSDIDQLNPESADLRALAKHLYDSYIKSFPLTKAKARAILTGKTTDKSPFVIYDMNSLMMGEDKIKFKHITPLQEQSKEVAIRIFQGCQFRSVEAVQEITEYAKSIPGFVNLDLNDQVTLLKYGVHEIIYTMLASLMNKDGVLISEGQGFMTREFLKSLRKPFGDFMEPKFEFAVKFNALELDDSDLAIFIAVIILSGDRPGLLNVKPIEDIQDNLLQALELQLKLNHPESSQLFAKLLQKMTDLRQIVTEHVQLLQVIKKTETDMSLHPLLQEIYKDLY
In words: Agonistic transcriptional activity in CV-1 cells expressing Gal4-PPAR gamma chimera. The class given is functional, cell-based.

Data set [5] concerns the target T5, Peroxisome proliferator-activated receptor delta (Homo sapiens, UniProt Q03181).
T5 sequence (Q03181 whole entry): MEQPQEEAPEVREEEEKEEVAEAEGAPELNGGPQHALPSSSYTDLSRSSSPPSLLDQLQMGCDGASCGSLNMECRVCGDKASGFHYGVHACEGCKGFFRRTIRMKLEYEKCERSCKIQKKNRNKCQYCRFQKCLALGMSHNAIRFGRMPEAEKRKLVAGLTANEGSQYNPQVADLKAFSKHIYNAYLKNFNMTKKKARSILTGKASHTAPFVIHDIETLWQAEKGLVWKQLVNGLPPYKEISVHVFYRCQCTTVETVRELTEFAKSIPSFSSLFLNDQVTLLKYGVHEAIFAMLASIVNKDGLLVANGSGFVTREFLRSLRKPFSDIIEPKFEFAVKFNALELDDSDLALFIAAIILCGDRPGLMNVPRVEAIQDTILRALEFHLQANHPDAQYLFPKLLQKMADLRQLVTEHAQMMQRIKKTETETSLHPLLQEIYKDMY
In words: Agonistic transcriptional activity in CV-1 cells expressing Gal4-PPAR delta chimera. Format: functional, cell-based.

The target of data set [6] is T6, Peroxisome proliferator-activated receptor alpha (Homo sapiens, UniProt Q07869).
T6 sequence (Q07869 whole entry): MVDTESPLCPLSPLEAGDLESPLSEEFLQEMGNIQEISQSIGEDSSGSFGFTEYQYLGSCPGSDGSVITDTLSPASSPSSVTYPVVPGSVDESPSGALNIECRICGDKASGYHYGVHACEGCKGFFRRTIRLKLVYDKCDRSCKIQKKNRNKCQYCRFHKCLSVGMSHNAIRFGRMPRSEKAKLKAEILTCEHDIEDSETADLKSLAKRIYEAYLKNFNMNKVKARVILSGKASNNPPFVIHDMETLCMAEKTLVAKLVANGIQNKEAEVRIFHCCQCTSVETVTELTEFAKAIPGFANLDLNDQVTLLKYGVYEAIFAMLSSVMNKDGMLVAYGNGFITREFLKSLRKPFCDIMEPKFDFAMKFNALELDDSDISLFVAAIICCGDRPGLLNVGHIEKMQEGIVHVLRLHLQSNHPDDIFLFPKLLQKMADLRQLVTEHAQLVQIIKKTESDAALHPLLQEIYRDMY
In words: Agonistic transcriptional activity in CV-1 cells expressing Gal4-PPAR alpha chimera. The class given is functional, cell-based.

Data set [7] relates to Rattus norvegicus. Put plainly: In vivo increase in HDL-c in ZDF rats at 30 mg/kg bid dose after 7 day administration. Format: functional.
The test system of data set [8] is Rattus norvegicus. In words: In vivo percent reduction in plasma glucose in ZDF rats at 30 mg/kg bid dose after 7 day administration. The class given is functional.
Data set [9] deals with Rattus norvegicus. Put plainly: In vivo percent reduction in serum triglycerides in ZDF rats at 30 mg/kg bid dose after 7 day administration. The class given is functional.
Data set [10] is described as follows: Mean plasma concentration at a oral dose of 3 mg/kg in rat at 0.5 hr. The class given is ADME, organism-based. Also noted: dose 3 mg/kg, route oral.
Data set [11] can be described thus: Mean plasma concentration at a oral dose of 3 mg/kg in rat at 1.0 hr. The class given is ADME, organism-based. Also noted: dose 3 mg/kg, route oral.
Data set [12] in a line: Mean plasma concentration at a oral dose of 3 mg/kg in rat at 2.0 hr. Format: ADME, organism-based. Details: dose 3 mg/kg, route oral.

From ChEMBL document CHEMBL1133842, “Identification of a series of PPAR gamma/delta dual agonists via solid-phase parallel synthesis” (Bioorg Med Chem Lett, 2001) come the findings set out here.

Molecules are shown by their SMILES.

Regarding `CC(C)(Oc1cccc(CCCN(Cc2ccc(C(F)(F)F)cc2C(F)(F)F)C(=O)Cc2ccc(C(F)(F)F)cc2)c1)C(=O)O`, the EC50 (in general, the midpoint of the concentration-response curve) in [1] is above 1000 nM; in data set [2] it was 28 nM; in data set [3] it was 19 nM; in data set [4], 4 nM; in data set [5], 19 nM; in [6], 620 nM. Also, the Reduction with Rattus norvegicus [7] was 24%; in the data set on Rattus norvegicus [8], 47%; with Rattus norvegicus [9], 51%. In data set [10], this compound yielded a concentration at 0.5 h of 373 ng/mL. In data set [11], this compound gave a concentration at 1 h of 722 ng/mL. In data set [12], this compound returned a concentration at 2 h of 524 ng/mL.

As to `CCOC(=O)c1ccc(NC(=O)N(CCCc2cccc(OC(C)(C)C(=O)O)c2)Cc2ccc(C(F)(F)F)cc2C(F)(F)F)cc1`, the EC50 in data set [4] was 0.5 nM; in data set [5], 160 nM; in [6], 230 nM.

`CC(C)(Oc1cccc(CCCN(Cc2ccc(C(F)(F)F)cc2C(F)(F)F)C(=O)COc2ccc(Cl)c(Cl)c2)c1)C(=O)O`: the EC50 is 30 nM in data set [4], 93 nM in data set [5] and 710 nM in data set [6].
